Results: patent US20100069345A1, “Lanthanide-porphyrin complexes as anti-tumor agents” (priority 2005, published 2010)

Assays:
[1] = tested on: human hepatocellular carcinoma cells (HepG2); assay: MTT cell viability assay, HepG2; assay type: cell-based
Source text: (§1) Human cervical epitheloid carcinoma cells (HeLa), human hepatocellular carcinoma cells (HepG2 and Hep3B), human breast cancer cells (MCF-7), human coloadenocarcinoma cells (HCT-8), and normal human lung fibroblast cells (CCD-19Lu) were purchased from American Type Culture Collection (ATCC) Rockville, Md., USA. The human hepatocellular cancinoma cells QGY-7703, and the multi-drug resistant cell line QGY-TR50 derived from QGY-7703, were generously provided by Prof. Yong Xie (The Hong Kong University of Science and Technology, Hong Kong PRC). QGY-TR50 cells were isolated and cultured as described (J. Zhou, S. C. Cheng, D. Luo, Y. Xie Biochem. Biophys. Res. Commun. 2001, 280, 1237-1242). Human nasopharyngeal carcinoma cells (SUNE1 and its cisplatin-resistant variant—CNE2) were derived from poorly differentiated NPC in Chinese patients and were generously provided by Dr. S. W. Tsao (The University of Hong Kong, Hong Kong PRC). Cell culture flasks and 96-well microtitre plates were from Nalge Nunc Int. Culture medium, other medium constituents and phosphate buffer saline (PBS) were obtained by Gibco BRL Rockville, Md., USA. Cell Proliferation kit I (MTT) was purchased from Roche. Mannheim, Germany.

HeLa cells [2] = assay: FACS cell cycle analysis with PI staining; assay type: cell-based, human; conditions: 2 μM
Description: Instrumentation. All absorption spectra were recorded on a Perkin-Elmer Lambda 900 and Perkin-Elmer Fusion α-FP. Positive ion FAB mass spectra were recorded on a Finnigan MAT95 mass spectrometer. ^1HNMR spectra were recorded on Brucker DPX-300 or DPX-400 NMR spectrometers. Flow cytometric analysis was performed with a Coulter EPICS flow cytometer (Coulter, Miami, Fla.) equipped with 480 long, 525 band and 625 long pass mirrors. Samples were excited by 15 mW air-cool argon convergent laser at 488 nm. Fluorescence signal were manipulated with Coulter Elite 4.0 software (Coulter) and were analyzed by Winlist 1.04 and Modfit 5011 software (verity Software House, Topsham, Me.).
Fluorescence-Activated Cell Sortings (FACS). Cells in different phases of the cell cycle can be differentiated by the DNA content, which can be distinguished by FACS after staining the cells with propidium iodide (PI). Resting cells are said to be in the G0 phase of the cell cycle. Once the cell is instructed to divide, it enters the active phase of the cell cycle, which is consisted of G1, S, G2 and M phase. Treatment of cancer cells with cytotoxic agents may induce cell cycle arrest at a particular phase of the cell cycle. Flow cytometry with PI staining was performed in HeLa cells treated with complex 1 (2 μM) for 0, 6 h, 12 h, 18 h, 24 h, 36 h and 48 h. […]

HeLa cells [3] = assay: Transmission electron microscopy of autophagic cells; assay type: cell-based, human; conditions: 1 μM, 2 h
Description: Transmission Electron Microscopy. HeLa cells (12×10^4) were seeded on 60 mm plate. Cells were treated with 1 (1 μM) for 2 h, respectively. Cells were then trypsinized, washed twice with PBS and fixed with ice-cold glutaraldehyde (2.5% in 0.1 M cacodylate buffer, pH 7.4) for 30 min. After primary fixation, cells were washed with cacodylate buffer, post-fixed with 1% osmium tetraoxide for 30 min. Osmium tetraoxide was removed and the cell pellet was washed with cacodylate buffer. Pre-warmed gelatin was added to the cell pellet and immediately centrifuged at 2500 rpm for 5 min. The gelatin was dehydrated by immersing in 30% EtOH, 50% EtOH, 70% EtOH once, and in 90% EtOH twice for 5 min and finally in absolutely EtOH for 10 min for three times. The dehydrated sample was washed with propylene oxide twice for 5 min and then immersed in propylene oxide:resin (1:1) for overnight. The sample was immersed in pure resin for 30 min before embedded in Polybed. Specimens were examined using 208S Philips transmission electron microscopy.
Cells treated with 1 were subjected to transmission electron microscopic analysis.

[4] = tested on: multi-drug resistant liver tumor cells (QGY-TR50); assay: Murine xenograft tumor model; assay type: in vivo, mouse; conditions: 10 mg/kg/day i.p. daily for 22 days, nude mice, vs control group
Description: The murine model for anti-tumor evaluation in vivo was the male BALB/c-nu/nu mouse originated from Charles River Laboratories, Inc. and the colony was maintained in the Laboratory Animal Unit, The University of Hong Kong. Mice were grafted in the left flank with QGY-TR50 cells subcutaneously. All of the experiments were carried out according to the guidelines of the Committee on the Use of Live Animals in Teaching and Research, The University of Hong Kong.
The anti-tumor effect of complex 1 was examined in the xenograft mice model. A complex 1 suspension was prepared by dissolving the complex in 1% EtOH and mixed with a solution containing 0.2% sodium carboxymethyl cellulose (Sigma) and 0.1% Tween 80 (Sigma) in PBS. A dose tolerance test was conducted to determine the appropriate dose ranges for complex 1. […] The dimensions of the tumors were measured twice weekly with calipers, and tumor volumes were estimated using two-dimensional measurements of length and width and calculated with the formula [l×(w)^2]×0.52 (l, length; w, width) according to described procedures (M. Guba, P. von Breitenbuch, M. Steinbauer, G. Koehl, S. Flegel, M. Hornung, C. J. Bruns, C. Zuelke, S. Farkas, M. Anthuber, K. W. Jauch, E. K. Geissler, Nat Med 2002, 8, 128-135). The weights of the mice were also recorded twice weekly throughout the course of treatment. […]

[5] = tested on: different human liver carcinoma cells; assay: Cytotoxicity toward different human liver carcinoma cells; assay type: cell-based; conditions: treatment for 48 h
Source text: as §1

IC50 ratio cisplatin/complex, HepG2 ([1]; IC50 of cisplatin divided by IC50 of complex): 22.7
IC50 ([1]; MTT, 37° C., 48 h, mean ± SD): 0.21 ± 0.01 µM
Substance: [Yb2(OEP)2](μ-OH)2 [Complex 1]
change in proportion of cells in G0-G1, G2-M and S phase (HeLa cells [2]; 0-48 h, PI staining): no observable change
cells showing DNA fragmentation (HeLa cells [2]; 48 h): more than 60%
autophagic vacuoles by transmission electron microscopy (HeLa cells [3]): vesicular structures reminiscence of autophagic vacuoles
inhibition of the tumor volume [4]: 40%
IC50 [5]: 0.06 to 0.78 µM
